# Results: PubChem BioAssay (NCI)
#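 Exposure lasted 48 hours, with cells grown in 96-well plates and compounds tested at five concentrations. Here, GI50 denotes the concentration required for 50% inhibition of growth. TGI marks complete inhibition of growth.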
# Experiments:
# Assay in all cases: inhibition of tumour cell growth, NCI panel, 48 h
# LOX IMVI melanoma = tested on: LOX IMVI melanoma
# M14 melanoma = tested on: M14 melanoma
# DU-145 prostate = tested on: DU-145 prostate
# SF-268 CNS = tested on: SF-268 CNS
# HL-60(TB) leukemia = tested on: HL-60(TB) leukemia
# SF-539 CNS = tested on: SF-539 CNS
# HCT-116 colon = tested on: HCT-116 colon
# K-562 leukemia = tested on: K-562 leukemia
# SK-MEL-28 melanoma = tested on: SK-MEL-28 melanoma
# UACC-257 melanoma = tested on: UACC-257 melanoma
Structure (SMILES),GI50 (LOX IMVI melanoma),TGI (LOX IMVI melanoma),GI50 (M14 melanoma),TGI (M14 melanoma),GI50 (DU-145 prostate),TGI (DU-145 prostate),GI50 (SF-268 CNS),TGI (SF-268 CNS),GI50 (HL-60(TB) leukemia),TGI (HL-60(TB) leukemia),GI50 (SF-539 CNS),TGI (SF-539 CNS),GI50 (HCT-116 colon),TGI (HCT-116 colon),GI50 (K-562 leukemia),TGI (K-562 leukemia),GI50 (SK-MEL-28 melanoma),TGI (SK-MEL-28 melanoma),GI50 (UACC-257 melanoma),TGI (UACC-257 melanoma)
COc1cc(-c2cc(-c3cc4c([nH]c5ccccc54)c(-c4cc(OC)c(OC)c(OC)c4)n3)cc(-c3ccccc3)n2)cc(OC)c1OC,4.42 µM,26.5 µM,3.49 µM,> 100 µM,11 µM,> 100 µM,4.96 µM,> 100 µM,3.09 µM,11.3 µM,4.97 µM,44.4 µM,4.02 µM,> 100 µM,3.39 µM,> 100 µM,4.3 µM,30.2 µM,6.14 µM,44.6 µM
C[C@@H]1CC[C@@H]2[C@@H]1[C@H](OC(=O)/C=C/c1ccccc1)[C@]1(C3CCCCC3)C[C@@H](OC(=O)CO)[C@@]2(C)O1,1.67 µM,3.27 µM,3.57 µM,15.2 µM,3.99 µM,14.7 µM,1.48 µM,9.86 µM,2.75 µM,6.43 µM,5.48 µM,18.5 µM,1.92 µM,4.13 µM,3.88 µM,14.6 µM,3.59 µM,15.1 µM,5.1 µM,18.7 µM
COc1ccc(-c2nc3ccc(-c4nc5ccc(N6CCN(c7ccccc7)CC6)cc5[nH]4)cc3[nH]2)cc1OC,0.357 µM,1.34 µM,1.69 µM,6.32 µM,1.83 µM,3.46 µM,2.12 µM,4.68 µM,1.78 µM,10.2 µM,1.37 µM,2.81 µM,0.281 µM,1.11 µM,0.366 µM,2.92 µM,1.66 µM,3.24 µM,2.05 µM,4.4 µM
CN(C)CC[PH+](c1ccccc1)c1ccccc1.CN(C)CC[PH+](c1ccccc1)c1ccccc1.[Cl-].[Pd+2],> 100 µM,> 100 µM,> 100 µM,> 100 µM,> 100 µM,> 100 µM,> 100 µM,> 100 µM,> 100 µM,> 100 µM,> 100 µM,> 100 µM,> 100 µM,> 100 µM,27.8 µM,> 100 µM,> 100 µM,> 100 µM,> 100 µM,> 100 µM
CCOC(=O)Nc1ccc(C)c(NC(=O)OCC)c1,,> 100 µM,,> 100 µM,,> 100 µM,,> 100 µM,,> 100 µM,,> 100 µM,,> 100 µM,,> 100 µM,,> 100 µM,,> 100 µM
COc1cccc2c1C(=O)c1c(O)c3c(c(O)c1C2=O)C[C@](O)(C(=O)CO)C[C@H]3O[C@@H]1C[C@@H](NC(=O)CCCCCN(C)C2(c3ccc(F)cc3)CC3CCC2C3)[C@H](O)[C@@H](C)O1 (some centres undefined),5.17 µM,13.1 µM,3.48 µM,14.3 µM,1.13 µM,4.24 µM,5.38 µM,14.9 µM,6.59 µM,16.1 µM,3.67 µM,10.3 µM,0.729 µM,1.51 µM,1.11 µM,2.47 µM,7.25 µM,15.7 µM,0.931 µM,1.73 µM
CC(C)Oc1ccc2cc(-c3nn(CC4CCNCC4)c4ncnc(N)c34)ccc2c1,16.7 µM,33.8 µM,2.05 µM,4.68 µM,14.9 µM,28.4 µM,8.8 µM,23.5 µM,6.45 µM,20.6 µM,12.3 µM,24.7 µM,6.78 µM,19.8 µM,2.04 µM,6.29 µM,2.14 µM,5.3 µM,1.95 µM,3.98 µM
COc1ccc(-c2nn(-c3ccc(NC(=O)c4ccc(Cl)c(Cl)c4)cc3)cc2-c2ccncc2)cc1Cl,0.951 µM,2.17 µM,1.67 µM,> 12.9 µM,> 50 µM,> 50 µM,4.25 µM,> 50 µM,2.76 µM,> 50 µM,1.55 µM,> 19 µM,2.5 µM,> 50 µM,1.76 µM,> 30.6 µM,> 50 µM,> 50 µM,> 34.5 µM,> 50 µM
COc1ccc(Nc2nnc(-c3cc(O)ccc3O)s2)cc1,25.7 µM,> 50 µM,> 50 µM,> 50 µM,> 50 µM,> 50 µM,16.3 µM,> 50 µM,4.57 µM,> 50 µM,12.6 µM,25.8 µM,21.9 µM,> 50 µM,17.6 µM,> 50 µM,27.1 µM,> 50 µM,> 50 µM,> 50 µM
Cn1cc(C2=C(c3cn(CCCCO)c4ccccc34)C(=O)NC2=O)c2ccccc21,5.62 µM,> 25 µM,16.6 µM,> 25 µM,10 µM,> 25 µM,8.63 µM,> 25 µM,6.71 µM,16.3 µM,4.91 µM,16.7 µM,7.63 µM,> 25 µM,9.75 µM,> 25 µM,12.6 µM,> 25 µM,19.8 µM,> 25 µM
CCCN1C(=O)N(CCC)C2C1NC(=S)N2/N=C/C=C/c1ccccc1OC (centres undefined),0.627 µM,21.3 µM,0.455 µM,> 100 µM,0.557 µM,> 100 µM,1.15 µM,53.4 µM,0.337 µM,1.71 µM,0.33 µM,2.31 µM,0.445 µM,> 100 µM,0.41 µM,> 100 µM,6.26 µM,> 100 µM,20.3 µM,> 100 µM
CN1C(=O)N(C)C2C1NN=c1s/c(=C\c3ccc(Cl)cc3Cl)c(=O)n12 (centres undefined),0.159 µM,> 100 µM,0.167 µM,> 37.9 µM,0.334 µM,> 20.5 µM,1.66 µM,> 100 µM,0.264 µM,,0.131 µM,3.25 µM,0.131 µM,> 40.2 µM,0.0473 µM,> 50.7 µM,4.26 µM,> 94.6 µM,12.2 µM,> 100 µM
O=C1OCC2=C1C(c1cccc(Br)c1)c1cc3c(cc1N2CCO)CCC3 (centres undefined),0.119 µM,7.56 µM,0.078 µM,5.78 µM,0.137 µM,0.466 µM,0.109 µM,6.47 µM,0.0763 µM,0.444 µM,0.0801 µM,5.46 µM,0.0904 µM,3.04 µM,0.11 µM,7.9 µM,0.0564 µM,10.3 µM,0.0235 µM,8.12 µM
CN(C)C(n1cc2c(c1)-c1ccc(Cl)cc1C(c1ccccc1F)=NC2)n1cc2c(c1)-c1ccc(Cl)cc1C(c1ccccc1F)=NC2,,47.9 µM,,> 100 µM,,> 100 µM,,> 100 µM,,> 100 µM,,> 100 µM,,> 100 µM,,> 100 µM,,> 100 µM,,> 100 µM
CC[C@H]1[C@@H]2C=C[C@@H]3[C@H]4C/C=C\C(=O)NCCC[C@@H]5NC(=O)/C(=C(O)/C=C/[C@@H]4C[C@@H]3[C@H]2C[C@H]1C)C5=O,0.662 µM,1.96 µM,1.58 µM,3.08 µM,0.715 µM,1.94 µM,0.448 µM,1.86 µM,1.92 µM,3.99 µM,1.3 µM,2.72 µM,1.48 µM,3.03 µM,1.96 µM,4.24 µM,1.89 µM,4.06 µM,1.71 µM,3.49 µM
O=C1Nc2ccccc2/C1=N\[O-].O=C1Nc2ccccc2/C1=N\[O-].[Cu+2],> 100 µM,> 100 µM,> 100 µM,> 100 µM,> 100 µM,> 100 µM,> 100 µM,> 100 µM,> 100 µM,> 100 µM,> 100 µM,> 100 µM,> 100 µM,> 100 µM,> 100 µM,> 100 µM,> 100 µM,> 100 µM,> 100 µM,> 100 µM
